Source: patent US9212204B2, “Treatment of rett syndrome using glycyl-L-2-methylprolyl-L-glutamic acid” (priority 2011, dated 2015)
Non-standard residues stand in square brackets, D forms with d. Residues, ends and D or L forms follow the SMILES beside them. αMeP = C[C@@]1(C(=O)O)CCCN1

Experiments:
[1] = system: MeCP2 deficient mice; experiment: Survival of MeCP2 deficient mice after oral administration; format: in vivo, mouse; details: 20 or 80 mg/kg daily
Procedure: Therefore, we administer G-2-MePE orally to MeCP2 deficient mice as described in US 2009/0074865. Briefly, an aqueous solution, a water-in-oil emulsion (micro-emulsion, coarse emulsion or liquid crystal), or a gel composition containing a pharmaceutically effective amount of G-2-MePE (20 or 80 mg/kg per animal) is administered daily. In control MeCP2 deficient animals, we administer saline only, and wild-type animals are used to obtain baseline data similar to the design of studies described in Example 8 above.

[2] = system: 12-month old male Wistar rats; experiment: Morris water maze test, spatial reference memory; format: in vivo, rat
Procedure: We used male Wistar rats 12, 8 or 4 months of age.
The Morris water maze test was conducted using a black plastic pool filled to a depth of 25 cm with water colored black with a non-toxic dye. […] The platform remained in that position though the training.
The experiment used extra-maze cues (i.e. objects in the room surrounding the pool) that the rats could use to navigate to the platform. Distinctive posters or paintings were hung on the walls. Furniture in the room was not moved during the testing period. The placement of the pool allowed the experimenter an easy access to it from all sides. The pool was emptied and refilled daily during testing, with water at 25° C.+/−2° C.
The furthermost point in the pool (relative to the position of the experimenter) was designated as “north”, and the other compass points “east”, “south” and “west” were the right-most, bottom and left-most points of the pool respectively. These points were marked with tape on the outside of the pool.
Rats in each group were trained to swim to the submerged platform. The rats received six 60-second trials per day for four consecutive days. A trial began by placing the rat into the water facing the wall of the pool, at one of four start locations (north, south, east, west). […]

[3] = system: GFAP-positive reactive astrocytes; experiment: GFAP staining, astrocytosis in aged brains; format: in vivo, rat; details: i.p.; 18-month old rats; 3 d after injection; vs vehicle p<0.05, particularly 0.12 and 12 mg/kg
Procedure: To carry out these studies, tissues were fixed and embedded in paraffin and sections obtained using standard methods. Coronal sections (6 μm) containing the level of the hippocampus were cut and mounted on chrome-alum-coated slides for staining. The sections were deparaffinized in xylene, dehydrated in a series of ethanol and incubated in 0.1 M phosphate buffered saline (PBS).
Primary antibodies against glial fibrillary acidic protein (GFAP) and proliferating cell nuclear antigen (PCNA) were used to mark reactive glial cells and cells undergoing apoptosis and proliferation, respectively. […]
Control sections were processed in the same way except the primary antibody was omitted from the incubation solution. The number of PCNA positive cells was counted in the subventricular zone and the GFAP positive cells was scored in the cerebral cortex.
Using GFAP as a marker for reactive astrocytes, the number of GFAP-positive cells was counted in the CA4 sub-region of the hippocampus of aged rats treated with G-2MeP or vehicle. […]
We also evaluated effects of G-2-MePE on astrocytosis in the CA4 sub-region of the hippocampus in aged rats. […]
GFAP-positive cells were counted using a computerised program (Discovery 1). G-2-MePE was administered intra-peritoneally and the numbers of GFAP-positive cells were assessed 3d after the injection. […]

C[C@@]1(C(=O)N[C@@H](CCC(=O)O)C(=O)O)CCCN1C(=O)CN [Example G-2-MePE, Glycyl-L-2-methylprolyl-L-glutamic acid] (H-Gly-[αMeP]-Glu-OH)
survival [1]: increased substantially
time needed to reach the platform, retention phase ([2]; high (4.8 mg/day) or low (0.96 mg/day) dose, vs saline-treated controls, 12 month old rats): decrease in the time needed to reach the platform
retention of the original water maze task ([2]; high dose 4.8 mg/day s.c. minipump over 3 weeks, 4-week delay, vs 3-week vehicle): improved the retention
number of reactive astrocytes (GFAP) in the CA4 region of the hippocampus [3]: reduced
